Test results as given in patent US20150306232A1, “HYDROGELATORS COMPRISING D-AMINO ACIDS” (BRANDEIS UNIVERSITY, priority 2012, published 2015).
Non-standard residues stand in square brackets, D forms with d. Residues, ends and D or L forms follow the SMILES beside them. *: point of attachment. Naproxen = COc1ccc2cc([C@H](C)C(=O)*)ccc2c1

Columns and labels:
HeLa cells = experiment: live cell imaging of intracellular self-assembly; format: cell-based; conditions: 500 μM
Experimental: We seeded 2×10^5 of HeLa cells in Glass Chamber (Thermo Scientific Nunc Lab-Tek, 2-well) with MEM medium (2 mL) that was supplemented with 10% FBS, 100 U/mL penicillin and 100 mg mL 21 streptomycin for 4 h to allow the cell attachment. In order to perform the PTP1B Inhibition assay, we then replaced the culture medium in both wells and re-incubated the cells for 1 h, for which one-half of the wells was incubated in the medium containing 25 μM CinnGEL 2Me (novel inhibitor of PTP1B, prepared by reconstitution in DMSO), other well as a control was in the culture medium plus the same volume of DMSO. Ishino, Y.; et al. Mol. Vis. 2008, 14, 61. After that, we replaced the medium and washed the HeLa cells with PBS buffer for three times. Then we fixed the cell containing glass chamber on the confocal microscope stage, and replaced the PBS buffer with 1 mL solution of our fluorescent hydrogelators (500 μM, dissolved in PBS buffer) for each well. The sample we added into the PTP1B inhibition well also contained 25 μM of CinnGEL 2Me. Thereafter fluorescent images were captured immediately in the xyt mode with a delay of 11.64 s between frames.

ALP = experiment: enzymatic dephosphorylation followed by 31P NMR; format: biochemical; conditions: 1.0 wt %, 0.02 U/mL ALP, pH 7.6, 25° C.
Experimental: To evaluate the rate of enzymatic hydrogelation process, we used ^31P NMR and rheology to study the transformation of the precursors 11a and 11b upon the treatment of ALP (FIG. 26). We first dissolved 10 mg of 11a and 11b into 1.0 mL of water at pH 7.6, respectively, to afford clear solutions with concentrations of 1.0 wt %. Once adding 0.02 U/mL of alkaline phosphates, we immediately monitored the solutions of 11a and 11b by ^31P NMR and oscillatory rheology at 25° C. The ^31P NMR spectra at 3 min, 1 h, 2 h, 4 h, 6 h, 8 h, 10 h, 12 h, 14 h, 18 h, 24 h, and 48 h indicate that the phosphate groups on the L-tyrosine of 11a and D-tyrosine 11b (δ=−2.7) become free phosphates (δ=0.0) at almost same rate, and dephosphorylation finishes after 48 hours. […] FIGS. 26C and 26D display the time dependent rheology studies of 11a and 11b. At the beginning, values of G″ are higher than the values of G′ for the solutions of 11a and 11b, indicating both of them are fluids. However, as 11a and 11b slowly turn into hydrogelators 12a and 12b by enzymatic dephosphorylation, the solutions start to form solid-like hydrogels with values of G′ become higher than those of G″. The gelation points for 12a and 12b, at where G′s intersect with G″s, are both achieved around 5 hours after the addition of enzyme. […]

[1] = enzymatic hydrogelation with ALP; format: physicochemical; conditions: 1.0 U/mL ALP, pH 7.6, 0.4-1.0 wt %
Experimental: To investigate the enzymatic hydrogelation of the D-peptidic precursor 11b, we prepared a series of hydrogels formed by using ALP to treat 11b at different concentrations. After dissolving 1.0, 2.0, 3.0, 4.0, and 5.0 mg of 11b in 0.5 mL of water (pH 7.6), respectively, we obtained clear solutions of 11b with different concentrations. The treatment of the solutions of 11b with ALP (1.0 U/mL) afforded the molecules of hydrogelator 12b, which are less soluble than 11b and thus self-assemble in water to form hydrogels when the concentrations of 12b are sufficient.
All the compounds were dissolved in de-ionized water. We then adjusted pH of the solutions carefully adding 1 M of NaOH and 1 M of HCl and measured the values by pH paper (pH 6.0-8.0). After prepared clear weakly basic solutions (pH 7.6 or 7.4), we then formed the hydrogels by adding enzymes (alkaline phosphatase).

COX-2 = COX-2 (Homo sapiens, UniProt P35354); experiment: COX-2 (μM)
Sequence of COX-2 (P35354 18-604 limits assumed): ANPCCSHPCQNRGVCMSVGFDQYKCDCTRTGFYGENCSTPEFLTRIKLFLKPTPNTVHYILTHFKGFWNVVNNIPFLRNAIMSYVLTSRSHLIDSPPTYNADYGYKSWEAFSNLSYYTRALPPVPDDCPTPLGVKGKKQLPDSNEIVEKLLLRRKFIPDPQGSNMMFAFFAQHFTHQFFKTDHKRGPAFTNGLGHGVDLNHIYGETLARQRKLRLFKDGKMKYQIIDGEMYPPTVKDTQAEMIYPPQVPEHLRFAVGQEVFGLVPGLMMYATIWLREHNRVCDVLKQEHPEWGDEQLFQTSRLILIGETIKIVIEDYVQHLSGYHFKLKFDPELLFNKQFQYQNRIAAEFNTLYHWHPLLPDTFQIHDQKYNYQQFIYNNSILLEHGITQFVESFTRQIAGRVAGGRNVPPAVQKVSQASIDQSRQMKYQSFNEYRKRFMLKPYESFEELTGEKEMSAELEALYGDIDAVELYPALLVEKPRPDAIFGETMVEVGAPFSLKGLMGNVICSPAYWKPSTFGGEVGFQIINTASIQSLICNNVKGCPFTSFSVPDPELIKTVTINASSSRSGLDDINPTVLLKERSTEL
Source text: (§1) Table printed on a drawing sheet, Figure 7
Head of the field: COX-2 (μM)
(§2) First copying reader's note: The head cell at top left is split by a diagonal line (IC50 for the columns, Hydrogel for the rows); the footnote for the mark ^a is not printed on the sheet.
Where the first naming reader finds the target: head: COX-2 (μM)

COX-1 = COX-1 (μM)
Source text: as §1
Head of the field: COX-1 (μM)
as §2
Where the first naming reader finds the target: head: COX-1 (μM)

[2] = rheological measurement of Npx containing hydrogels; format: physicochemical; conditions: hydrogel 0.8 wt %; for storage modulus G′: 6.28 rad/s
Experimental: Rheological tests were conducted on TA ARES G2 rheometer with TA Orchestrator Software. 25 mm cone-plate was used during the experiment. 0.2 mL of hydrogel sample was placed on the cone-plate.
The measurement performs at the frequency of 6.28 rad/s (0.1 to 10% strain, frequency=10 rads^−1, 10 points per decade). Sweep mode is “log” and temperature was carried out at 25° C. The critical strain (γc) value was determined from the storage-strain profiles of the hydrogel sample. The strain applied to the hydrogel sample increased from 0.1 to 100% (10 rad/s and 25° C.). Over a certain strain, a drop in the elastic modulus was observed, and the strain amplitude at which storage moduli just begins to decrease by 5% from its maximum value was determined and taken as a measure of the critical strain of the hydrogels, which correspond to the breakdown of the cross-linked network in the hydrogel sample.
The frequency ranges from 200 rad/s to 0.1 rad/s, depending on the viscoelastic properties of each sample. A suitable strain was used to ensure the linearity of dynamic viscoelasticity.

[3] = in vitro release of hydrogelators from hydrogels; format: physicochemical; conditions: 0.8 wt % hydrogel, PBS pH 7.4, 37° C., after 24 hours
Experimental: After studying their drug efficacies, the sustained release of Npx-containing hydrogelators from 0.8 wt % of hydrogels was studied. We incubated 100 μL of hydrogels at 37° C. for 24 hours with 100 μL of PBS buffer solution (pH 7.4), which is refreshed and monitored at 1 h, 2 h, 4 h, 8 h, 12 h, and 24 h. […] After 24 hours, hydrogel 1 slowly and steadily released 6.5% of the hydrogelator. […] Hydrogels 5 and 6 release 35.8% and 31.7% of hydrogelators after 24 h.
To illustrate the in vitro release profile of hydrogelators, we prepared 100 μL of the hydrogels formed by 1 (0.8 wt %, pH 4.0), 2 (0.8 wt %, pH 7.6), 3 (0.8 wt %, pH 7.6), 4 (0.8 wt %, pH 7.6), 5 (0.8 wt %, pH 7.0), and 6 (0.8 wt %, pH 7.0). With the addition of PBS buffer (100 μL, pH 7.4) onto the surface of hydrogels, the gels were incubated at 37° C. for 24 hours. The release solutions (100 μL) were taken and refreshed at […], 2 h, 4 h, 8 h, 12 h, and 24 h, which were detected by analytical HPLC at 276 nm for the quantities of released Npx containing hydrogelators 1, 2, 3, 4, 5, and 6.

COX-1 (ovine) enzyme = target: T1, COX-1 (ovine) enzyme (Ovis aries, UniProt P05979); experiment: COX Fluorescent Inhibitor Screening Assay, COX-1; format: biochemical; conditions: read-out: IC50 for inhibiting COX-1 enzyme
T1 construct: purchased Cayman Chemical 700100
T1 sequence (P05979 25-600): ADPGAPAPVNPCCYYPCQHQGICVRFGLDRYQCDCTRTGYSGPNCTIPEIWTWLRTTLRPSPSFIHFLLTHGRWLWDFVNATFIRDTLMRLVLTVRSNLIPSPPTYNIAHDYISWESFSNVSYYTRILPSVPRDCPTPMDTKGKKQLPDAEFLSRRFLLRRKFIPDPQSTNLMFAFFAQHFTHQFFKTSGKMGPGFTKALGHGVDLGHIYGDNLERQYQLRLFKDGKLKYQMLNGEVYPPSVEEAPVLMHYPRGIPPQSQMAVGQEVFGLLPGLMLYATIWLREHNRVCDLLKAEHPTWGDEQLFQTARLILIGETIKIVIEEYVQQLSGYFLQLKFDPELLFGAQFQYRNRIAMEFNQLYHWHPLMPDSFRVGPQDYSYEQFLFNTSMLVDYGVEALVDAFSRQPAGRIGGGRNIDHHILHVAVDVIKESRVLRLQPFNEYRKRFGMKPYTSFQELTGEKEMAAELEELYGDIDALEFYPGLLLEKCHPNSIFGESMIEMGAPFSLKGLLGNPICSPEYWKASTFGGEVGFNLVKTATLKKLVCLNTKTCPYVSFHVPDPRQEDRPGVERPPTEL
Experimental: To study the drug efficacies of NSAID containing hydrogelators, here we used ‘COX Fluorescent Inhibitor Screening Assay Kit’ (700100; Cayman Chemical) to do in vitro inhibition assays for Npx and Npx containing hydrogelors 1, 2, 3, 4, 5, and 6. Each compound was tested by COX-1 (ovine) enzyme and COX-2 (human recombinant) enzyme separately in 96 well black assay plates. By utilizing the peroxidase component of COXs, we monitored the reaction between PGG2 and ADHP (10-acetyl-3,7-dihydroxyphenoxazine), which produced highly fluorescent compound resorufin. This resorufin can be easily analyzed by multimode detector with an excitation wavelength of 530-540 nm and an emission wavelength of 585-595 nm. All the compounds are assayed in triplicate. After the combination of 10 μl of inhibitors, 10 μl of Heme solution, 10 μL of fluorometric substrate, 10 μl of enzyme (either COX-1 or COX-2), and 150 μl of assay buffer, we quickly add 10 μl of arachidonic acid solution to initiate the reaction. Then we read the plate exactly after two minutes incubation at room temperature. In this experiment, we also measure the blank data without enzyme and inhibitors, and the control data without inhibitors. The IC50 values of these hydrogelators were read from their activity curves (FIG. 18), which were measured with 5 different concentrations of these hydrogelators (dissolved in DMSO).

Question: With “2-(Naphthalen-2-yl)acetyl-(D)-Phe-(D)-Phe-(D)-Lys(NBD)-(D)-Tyr phosphate [14b]” as the molecule, how does the “time until fluorescence emerges” value (HeLa cells; with 25 μM CinnGEL 2Me (PTP1B inhibitor)) read?
Answer: Its value is 5 min.

Question: And the “time until cells exhibit strong fluorescence” value (HeLa cells; without PTP1B inhibitor)?
Answer: Its value is 2 min.

Question: With “2-(Naphthalen-2-yl)acetyl-(D)-Phe-(D)-Phe-(D)-Lys-(D)-Tyr phosphate [11b]” as the molecule, how does the “time at which dephosphorylation finishes” value (ALP) read?
Answer: Its value is 48 h.

Question: And the “time to form hydrogel after addition of ALP” value [1]?
Answer: Its value is no more than 24 h.

Question: For “2-(Naphthalen-2-yl)acetyl-(L)-Phe-(L)-Phe-(L)-Lys-(L)-Tyr phosphate [11a, reference compound]”, which “time at which dephosphorylation finishes” value (ALP) is on record?
Answer: The value was 48 h.

Question: Which results are given for COc1ccc2cc([C@H](C)C(=O)N[C@@H](Cc3ccccc3)C(=O)N[C@@H](Cc3ccccc3)C(=O)O)ccc2c1 [L-1, Naproxen-L-Phe-L-Phe]?
Answer: IC50 (COX-2): 715 µM; IC50 (COX-1): 986 µM

Question: With COc1ccc2cc([C@H](C)C(=O)N[C@@H](Cc3ccccc3)C(=O)N[C@@H](Cc3ccccc3)C(=O)N[C@@H](Cc3ccc(O)cc3)C(=O)O)ccc2c1 [L-2, Naproxen-L-Phe-L-Phe-L-Tyr] as the molecule, how does the IC50 (COX-2) read?
Answer: Its IC50 is 144 µM.

Question: What about the IC50 (COX-1) of the same molecule?
Answer: The IC50 was 294 µM.

Question: With COc1ccc2cc([C@H](C)C(=O)N[C@H](Cc3ccccc3)C(=O)N[C@H](Cc3ccccc3)C(=O)O)ccc2c1 [compound 1, Naproxen-D-Phe-D-Phe] as the molecule, how does the critical strain [2] read?
Answer: The critical strain was 1.0%.

Question: What about the “storage modulus G′” value [2] of the same molecule?
Answer: Its value is 5.3×10^4 Pa.

Question: What about the “hydrogelator released from hydrogel” value [3] of the same molecule?
Answer: Its value is 6.5%.

Question: What about the IC50 (COX-1 (ovine) enzyme) of the same molecule?
Answer: The IC50 was 854 µM.

Question: With COc1ccc2cc([C@H](C)C(=O)N[C@H](Cc3ccccc3)C(=O)N[C@H](Cc3ccccc3)C(=O)N[C@H](CCCCN)C(=O)N[C@H](Cc3ccc(O)cc3)C(=O)O)ccc2c1 [compound 4, Npx-ffky] (Naproxen-[dF][dF][dK][dY]-OH) as the molecule, how does the critical strain [2] read?
Answer: The critical strain was 5.5%.

Question: What about the “storage modulus G′” value [2] of the same molecule?
Answer: The value was 1.5×10^2 Pa.

Question: What about the “hydrogelator released from hydrogel” value [3] of the same molecule?
Answer: Its value is 19.8%.
